Source: patent publication US7750021B2, “Immunosuppressant compounds and compositions” (IRM LLC, priority 2003, dated 2010)

Tests used:
blood lymphocytes = test: Measurement of circulating lymphocytes (blood lymphocyte depletion); format: in vivo, Mice (C57b1/6 male); details: Mus musculus, po, mice, orally by gavage, blood collected 6 and 24 hours after administration, read-out: ED50, effective dose required displaying 50% of blood lymphocyte depletion
Protocol: Measurement of circulating lymphocytes: Compounds are dissolved in DMSO and diluted to obtain a final concentration of 4% DMSO (v/v, final concentration) and then further diluted in a constant volume of Tween80 25%/H2O, v/v. Tween80 25%/H2O (200 μl), 4% DMSO, and FTY720 (10 μg) are included as negative and positive controls, respectively. Mice (C57b1/6 male, 6-10 week-old) are administered 250-300 μL of compound solution orally by gavages under short isoflurane anesthesia.
Blood is collected from the retro-orbital sinus 6 and 24 hours after drug administration under short isoflurane anesthesia. Whole blood samples are subjected to hematology analysis. Peripheral lymphocyte counts are determined using an automated analyzer. Subpopulations of peripheral blood lymphocytes are stained by fluorochrome-conjugated specific antibodies and analyzed using a fluorescent activating cell sorter (Facscalibur). Two mice are used to assess the lymphocyte depletion activity of each compound screened. The result is an ED50, which is defined as the effective dose required displaying 50% of blood lymphocyte depletion.

[1] = tested on: EDG-3, EDG-5, EDG-6 and EDG-8; test: EDG-3, -5, -6 and -8 GTP [γ-35S] binding assays (selectivity versus EDG-1); format: biochemical, human
Protocol: (§1) A. In Vitro: GPCR Activation Assay Measuring GTP [γ-^35S] Binding to Membranes Prepared from CHO Cells Expressing Human EDG Receptors
Solutions of test compounds ranging from 10 mM to 0.01 nM are prepared in DMSO. S1P is diluted in 4% BSA solution as positive controls. The desired amount of membrane prep is diluted with ice-cold assay buffer (20 mM HEPES, pH 7.4, 100 mM NaCl, 10 mM MgCl2, 0.1% Fatty acid-free BSA, 5 μM GDP) and vortexed well. 2 μl or less of compound is distributed into each well of a round-bottom 96-well polystyrene assay plate, followed by addition of 100 μl of diluted membranes (3-10 μg/well) and kept on ice until the addition of hot GTPγS. [^35S]-GTPγS is diluted 1:1000 (v/v) with cold assay buffer and 100 μl is added into each well. The reaction is carried out at room temperature for 90 minutes before the membranes are harvested onto Perkin-Elmer Unifilter® GF/B-96 filter plate using a Packard Filtermate Harvester. After several washes with wash buffer (20 mM HEPES, pH 7.4, 100 mM NaCl, 10 mM MgCl2), and a rinse with 95% ethanol, the filter is dried in a 37° C. oven for 30 minutes. MicroScint-20 is added and the plate sealed for scintillation counting on TopCount. EC50 values are obtained by fitting the GTP [γ-^35S] binding curves (raw data) with the dose response curve-fitting tool of GraphPad Prism. […]

human EDG-1 = biological target: T1, human EDG-1 (Homo sapiens, UniProt P21453); test: EDG-1 (S1P1) GTP [γ-35S] binding assay; format: biochemical; details: GTP [γ-35S] binding to membranes from CHO cells expressing human EDG-1
T1 construct: c-myc (N); expressed in transfected cells
Protocol: as §1
EDG-1 (S1P1) GTP [γ-^35S] binding assay: Homogenized membranes are prepared from CHO cell clones stably expressing a human EDG-1 N-terminal c-myc tag. Cells are grown in suspension in two 850 cm^2 roller bottles for three or fours days before harvesting. The cells are centrifuged down, washed once with cold PBS, and resuspended in ≦20 ml of Buffer A (20 mM HEPES, pH 7.4, 10 mM EDTA, EDTA-free complete protease inhibitor cocktail [1 tablet/25 ml]). The cell suspension is homogenized on ice, using a Polytron homogenizer at 30000 rpm at three intervals of 15 seconds each. The homogenate is first centrifuged at 2000 rpm on a tabletop low speed centrifuge for 10 minutes. The supernatant, after passing through a cell strainer, is then re-centrifuged at 50,000×g for 25 minutes at 4° C. The pellet is resuspended into buffer B (15% glycerol, 20 mM HEPES, pH 7.4, 0.1 mM EDTA, EDTA-free complete protease inhibitor cocktail [1 tablet/10 ml]). Protein concentration of the prep is determined using the BCA Protein Assay kit (Pierce) using BSA as standard. The membranes are aliquoted and kept frozen at −80° C.
Solutions of test compounds ranging from 10 mM to 0.01 nM are prepared in DMSO. S1P is diluted in 4% BSA solution as positive controls. […]

T1 sequence (P21453 whole entry): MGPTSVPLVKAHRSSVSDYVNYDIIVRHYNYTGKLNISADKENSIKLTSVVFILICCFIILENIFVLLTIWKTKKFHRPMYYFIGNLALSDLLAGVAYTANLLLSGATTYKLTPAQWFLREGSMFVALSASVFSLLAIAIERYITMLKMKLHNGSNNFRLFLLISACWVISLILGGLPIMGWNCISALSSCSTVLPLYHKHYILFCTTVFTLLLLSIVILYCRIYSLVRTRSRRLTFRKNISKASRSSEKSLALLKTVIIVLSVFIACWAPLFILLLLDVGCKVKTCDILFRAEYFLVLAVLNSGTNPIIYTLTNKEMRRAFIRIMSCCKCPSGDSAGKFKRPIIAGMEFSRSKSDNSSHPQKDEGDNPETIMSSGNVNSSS

For `O=C(O)CCNCc1ccc2sc(-c3ccc(-c4ccccc4)c(C(F)(F)F)c3)cc2c1` [Example 1, 3-{[2-(2-Trifluoromethyl-biphenyl-4-yl)-benzo[b]thiophen-5-ylmethyl]-amino}-propionic acid], the ED50 (blood lymphocytes) was 0.2 mg/kg, the “selective for EDG-1 compared to one or more of the other receptors including EDG-3, EDG-5, EDG-6 and EDG-8” value [1] was “at least 1000 fold” and the EC50 (human EDG-1) was 0.6 nM.
